Like-named read-outs stand apart in the source and are kept apart here.
Assays:
[1] = target: CDK1/Cyclin E1 (Homo sapiens, UniProt P06493); test: NanoBRET live-cell target engagement, CDK1-NanoLuc/Cyclin E1 in HEK-293; type: binding; settings: CDK1/E1
[2] = target: CDK2/Cyclin E1 (Homo sapiens, UniProt P24941); test: NanoBRET live-cell target engagement, CDK2-NanoLuc/Cyclin E1 in HEK-293; type: binding; settings: CDK2/E1
[3] = target: CDK3/Cyclin E1 (Homo sapiens, UniProt Q00526); test: NanoBRET live-cell target engagement, CDK3-NanoLuc/Cyclin E1 in HEK-293; type: binding; settings: CDK3/E1
[4] = target: CDK4/Cyclin D1 (Homo sapiens, UniProt P11802); test: NanoBRET live-cell target engagement, NanoLuc-CDK4/Cyclin D1 in HEK-293; type: binding; settings: CDK4/D1; for IC50: read-out: IC50
[5] = target: CDK5/CDK5R1 (Homo sapiens, UniProt Q00535); test: NanoBRET live-cell target engagement, CDK5-NanoLuc/CDK5R1 in HEK-293; type: binding; settings: CDK5/CDK5R1
[6] = target: CDK6/Cyclin D1 (Homo sapiens, UniProt Q00534); test: NanoBRET live-cell target engagement, NanoLuc-CDK6/Cyclin D1 in HEK-293; type: binding; settings: CDK6/D1; for IC50: read-out: IC50
[7] = target: CDK7 (Homo sapiens, UniProt P50613); test: NanoBRET live-cell target engagement, NanoLuc-CDK7 in HEK-293; type: binding; settings: CDK7
[8] = target: CDK8/Cyclin C (Homo sapiens, UniProt P49336); test: NanoBRET live-cell target engagement, NanoLuc-CDK8/Cyclin C in HEK-293; type: binding; settings: CDK8/C
[9] = target: CDK9/Cyclin K (Homo sapiens, UniProt P50750); test: NanoBRET live-cell target engagement, NanoLuc-CDK9/Cyclin K in HEK-293; type: binding; settings: CDK9/K
[10] = target: CDK11B/Cyclin L2 (Homo sapiens, UniProt P21127); test: NanoBRET live-cell target engagement, CDK11B-NanoLuc/Cyclin L2 in HEK-293; type: binding; settings: CDK11b/L2
[11] = target: CDK12/Cyclin K (Homo sapiens, UniProt Q9NYV4); test: NanoBRET live-cell target engagement, CDK12-NanoLuc/Cyclin K in HEK-293; type: binding; settings: CDK12/K
[12] = target: CDK13/Cyclin K (Homo sapiens, UniProt Q14004); test: NanoBRET live-cell target engagement, CDK13-NanoLuc/Cyclin K in HEK-293; type: binding; settings: CDK13/K
[13] = target: CDK14/Cyclin Y (Homo sapiens, UniProt O94921); test: NanoBRET live-cell target engagement, CDK14-NanoLuc/Cyclin Y in HEK-293; type: binding; settings: CDK14/Y
[14] = target: CDK15/Cyclin Y (Homo sapiens, UniProt Q96Q40); test: NanoBRET live-cell target engagement, NanoLuc-CDK15/Cyclin Y in HEK-293; type: binding; settings: CDK15/Y
[15] = target: CDK16/Cyclin Y (Homo sapiens, UniProt Q00536); test: NanoBRET live-cell target engagement, CDK16-NanoLuc/Cyclin Y in HEK-293; type: binding; settings: CDK16/Y
[16] = target: CDK17/Cyclin Y (Homo sapiens, UniProt Q00537); test: NanoBRET live-cell target engagement, CDK17-NanoLuc/Cyclin Y in HEK-293; type: binding; settings: CDK17/Y
[17] = target: CDK18/Cyclin Y (Homo sapiens, UniProt Q07002); test: NanoBRET live-cell target engagement, CDK18-NanoLuc/Cyclin Y in HEK-293; type: binding; settings: CDK18/Y
[18] = target: CDK20/Cyclin H (Homo sapiens, UniProt Q8IZL9); test: NanoBRET live-cell target engagement, NanoLuc-CDK20/Cyclin H in HEK-293; type: binding; settings: CDK20/H
[19] = target: CDK19/Cyclin C (Homo sapiens, UniProt Q9BWU1); test: NanoBRET live-cell target engagement, NanoLuc-CDK19/Cyclin C in HEK-293; settings: CDK19/C
[20] = target: CDK10/Cyclin L2 (Homo sapiens, UniProt Q15131); test: NanoBRET live-cell target engagement, CDK10-NanoLuc/Cyclin L2 in HEK-293; settings: CDK10/L2
Chain of CDK10/Cyclin L2 (Q15131 whole entry): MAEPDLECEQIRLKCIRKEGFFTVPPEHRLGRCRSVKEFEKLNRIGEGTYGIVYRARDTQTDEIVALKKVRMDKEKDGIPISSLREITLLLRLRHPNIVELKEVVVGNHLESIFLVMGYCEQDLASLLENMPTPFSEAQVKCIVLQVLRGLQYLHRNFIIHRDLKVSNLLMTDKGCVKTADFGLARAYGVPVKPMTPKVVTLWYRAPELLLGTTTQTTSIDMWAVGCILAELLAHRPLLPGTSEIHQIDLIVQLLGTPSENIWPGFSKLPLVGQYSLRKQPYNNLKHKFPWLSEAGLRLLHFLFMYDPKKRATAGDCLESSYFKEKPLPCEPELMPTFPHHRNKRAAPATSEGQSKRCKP

Chain of CDK9/Cyclin K (P50750 whole entry): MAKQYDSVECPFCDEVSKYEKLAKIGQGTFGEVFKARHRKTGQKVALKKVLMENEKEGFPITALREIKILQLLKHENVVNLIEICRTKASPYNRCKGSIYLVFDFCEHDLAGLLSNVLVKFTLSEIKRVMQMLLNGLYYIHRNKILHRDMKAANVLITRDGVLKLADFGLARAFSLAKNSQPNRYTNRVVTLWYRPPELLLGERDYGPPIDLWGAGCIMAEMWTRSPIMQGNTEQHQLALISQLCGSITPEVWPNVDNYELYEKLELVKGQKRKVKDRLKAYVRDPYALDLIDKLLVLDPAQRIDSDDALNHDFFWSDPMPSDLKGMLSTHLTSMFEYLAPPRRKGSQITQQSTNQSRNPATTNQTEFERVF
Chain of CDK9/Cyclin K (O75909 whole entry partner): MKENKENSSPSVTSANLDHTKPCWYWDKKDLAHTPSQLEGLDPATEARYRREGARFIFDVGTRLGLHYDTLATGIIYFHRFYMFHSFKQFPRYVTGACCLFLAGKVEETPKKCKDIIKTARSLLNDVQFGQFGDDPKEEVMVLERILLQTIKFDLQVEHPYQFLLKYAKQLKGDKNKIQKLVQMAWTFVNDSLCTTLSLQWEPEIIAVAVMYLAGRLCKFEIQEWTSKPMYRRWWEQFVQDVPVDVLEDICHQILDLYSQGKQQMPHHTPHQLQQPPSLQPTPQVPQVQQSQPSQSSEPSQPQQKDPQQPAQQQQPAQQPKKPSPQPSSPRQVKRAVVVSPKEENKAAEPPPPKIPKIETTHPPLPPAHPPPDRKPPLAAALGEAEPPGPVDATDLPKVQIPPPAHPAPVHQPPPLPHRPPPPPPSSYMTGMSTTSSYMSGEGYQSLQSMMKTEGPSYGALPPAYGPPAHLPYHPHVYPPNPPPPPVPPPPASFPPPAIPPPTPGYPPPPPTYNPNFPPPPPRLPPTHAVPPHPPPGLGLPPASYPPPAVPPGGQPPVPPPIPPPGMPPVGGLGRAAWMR
Chain of CDK8/Cyclin C (P49336 whole entry): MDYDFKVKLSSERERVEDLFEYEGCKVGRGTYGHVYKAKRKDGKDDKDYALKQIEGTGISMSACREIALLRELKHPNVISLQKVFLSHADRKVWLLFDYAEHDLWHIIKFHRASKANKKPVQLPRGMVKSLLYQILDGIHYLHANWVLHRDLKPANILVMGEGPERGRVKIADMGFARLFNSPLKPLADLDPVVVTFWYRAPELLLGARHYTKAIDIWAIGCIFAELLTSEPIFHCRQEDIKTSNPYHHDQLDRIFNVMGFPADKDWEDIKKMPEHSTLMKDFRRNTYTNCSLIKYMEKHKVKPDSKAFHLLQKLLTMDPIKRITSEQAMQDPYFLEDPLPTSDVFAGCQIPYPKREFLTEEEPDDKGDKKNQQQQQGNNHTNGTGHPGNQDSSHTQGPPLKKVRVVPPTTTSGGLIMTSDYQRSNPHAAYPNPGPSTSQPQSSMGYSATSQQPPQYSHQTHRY
Chain of CDK8/Cyclin C (P24863 whole entry partner): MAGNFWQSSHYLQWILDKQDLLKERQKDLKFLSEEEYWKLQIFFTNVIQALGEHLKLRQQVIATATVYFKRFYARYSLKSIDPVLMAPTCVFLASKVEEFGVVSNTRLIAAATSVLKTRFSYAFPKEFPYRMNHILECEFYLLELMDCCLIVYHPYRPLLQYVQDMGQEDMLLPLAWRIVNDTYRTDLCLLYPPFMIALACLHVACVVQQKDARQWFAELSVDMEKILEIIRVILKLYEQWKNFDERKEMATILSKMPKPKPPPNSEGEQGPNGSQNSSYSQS
Chain of CDK6/Cyclin D1 (Q00534 whole entry): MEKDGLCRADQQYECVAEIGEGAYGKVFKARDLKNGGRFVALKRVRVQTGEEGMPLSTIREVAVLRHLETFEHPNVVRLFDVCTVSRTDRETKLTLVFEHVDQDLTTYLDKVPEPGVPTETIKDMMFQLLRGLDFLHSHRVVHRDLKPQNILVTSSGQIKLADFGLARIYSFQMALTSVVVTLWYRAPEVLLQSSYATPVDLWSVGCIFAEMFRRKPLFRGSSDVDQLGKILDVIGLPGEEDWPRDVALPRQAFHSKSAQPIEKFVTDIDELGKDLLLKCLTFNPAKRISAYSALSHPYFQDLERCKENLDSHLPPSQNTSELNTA
Chain of CDK6/Cyclin D1 (P24385 whole entry partner): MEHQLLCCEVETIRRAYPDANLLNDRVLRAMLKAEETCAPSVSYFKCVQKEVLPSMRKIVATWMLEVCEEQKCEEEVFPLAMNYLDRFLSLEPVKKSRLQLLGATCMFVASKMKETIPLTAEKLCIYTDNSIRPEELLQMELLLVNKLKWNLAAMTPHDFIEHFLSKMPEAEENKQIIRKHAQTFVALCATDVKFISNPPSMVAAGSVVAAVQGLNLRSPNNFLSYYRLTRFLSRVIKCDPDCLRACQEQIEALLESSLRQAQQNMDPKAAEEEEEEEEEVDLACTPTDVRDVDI
Chain of CDK17/Cyclin Y (Q00537 whole entry): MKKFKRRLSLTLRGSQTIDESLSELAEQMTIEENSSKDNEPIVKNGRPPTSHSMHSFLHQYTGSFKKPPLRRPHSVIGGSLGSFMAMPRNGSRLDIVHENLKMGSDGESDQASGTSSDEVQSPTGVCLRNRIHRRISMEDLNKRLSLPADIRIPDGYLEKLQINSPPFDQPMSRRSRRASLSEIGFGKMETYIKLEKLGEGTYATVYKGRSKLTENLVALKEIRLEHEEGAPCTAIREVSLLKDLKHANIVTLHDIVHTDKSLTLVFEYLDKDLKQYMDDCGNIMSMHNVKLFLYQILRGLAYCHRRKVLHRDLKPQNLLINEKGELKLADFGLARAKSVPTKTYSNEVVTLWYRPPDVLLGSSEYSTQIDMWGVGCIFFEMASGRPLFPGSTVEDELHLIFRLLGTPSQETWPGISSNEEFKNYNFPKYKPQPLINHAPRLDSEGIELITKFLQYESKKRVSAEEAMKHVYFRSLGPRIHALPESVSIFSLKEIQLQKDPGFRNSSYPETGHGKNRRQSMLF
Chain of CDK17/Cyclin Y (Q8ND76 whole entry partner): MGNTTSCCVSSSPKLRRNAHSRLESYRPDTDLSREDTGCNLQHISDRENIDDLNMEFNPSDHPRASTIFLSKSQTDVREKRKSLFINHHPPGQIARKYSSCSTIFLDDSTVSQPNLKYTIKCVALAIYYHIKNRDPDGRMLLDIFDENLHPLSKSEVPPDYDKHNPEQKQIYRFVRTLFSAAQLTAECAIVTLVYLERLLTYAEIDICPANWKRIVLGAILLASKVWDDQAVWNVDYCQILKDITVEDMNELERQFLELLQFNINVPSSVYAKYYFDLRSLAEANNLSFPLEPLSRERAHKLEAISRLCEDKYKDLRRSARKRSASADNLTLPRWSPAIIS
Chain of CDK15/Cyclin Y (Q96Q40 whole entry): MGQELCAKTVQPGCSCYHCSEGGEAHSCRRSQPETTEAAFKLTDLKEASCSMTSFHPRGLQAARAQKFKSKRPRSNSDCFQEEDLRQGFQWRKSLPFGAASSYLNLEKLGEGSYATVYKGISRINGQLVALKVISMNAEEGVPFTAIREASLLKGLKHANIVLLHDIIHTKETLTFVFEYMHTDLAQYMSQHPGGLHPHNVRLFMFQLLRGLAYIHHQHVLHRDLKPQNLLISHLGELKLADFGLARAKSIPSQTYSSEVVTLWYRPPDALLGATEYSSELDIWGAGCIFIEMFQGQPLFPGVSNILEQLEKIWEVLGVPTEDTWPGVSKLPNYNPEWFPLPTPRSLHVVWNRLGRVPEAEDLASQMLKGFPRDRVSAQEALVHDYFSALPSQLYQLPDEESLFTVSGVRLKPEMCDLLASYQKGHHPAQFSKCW
Chain of CDK15/Cyclin Y (Q8ND76 whole entry partner): as the sequence (Q8ND76 whole entry partner) above
Chain of CDK18/Cyclin Y (Q07002 whole entry): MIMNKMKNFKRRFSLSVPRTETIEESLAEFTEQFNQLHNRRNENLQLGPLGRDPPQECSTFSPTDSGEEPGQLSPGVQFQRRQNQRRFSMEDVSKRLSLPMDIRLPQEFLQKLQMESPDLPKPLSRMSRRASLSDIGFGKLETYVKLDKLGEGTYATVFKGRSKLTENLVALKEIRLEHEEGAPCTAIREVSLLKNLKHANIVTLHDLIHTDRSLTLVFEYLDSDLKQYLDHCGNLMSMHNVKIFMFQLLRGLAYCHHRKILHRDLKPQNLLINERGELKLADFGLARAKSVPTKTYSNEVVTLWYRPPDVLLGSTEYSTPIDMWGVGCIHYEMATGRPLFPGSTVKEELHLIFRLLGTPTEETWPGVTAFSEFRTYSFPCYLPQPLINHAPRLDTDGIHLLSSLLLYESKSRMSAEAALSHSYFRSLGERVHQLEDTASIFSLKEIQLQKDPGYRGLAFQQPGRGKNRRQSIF
Chain of CDK18/Cyclin Y (Q8ND76 whole entry partner): as the sequence (Q8ND76 whole entry partner) above
Chain of CDK7 (P50613 whole entry): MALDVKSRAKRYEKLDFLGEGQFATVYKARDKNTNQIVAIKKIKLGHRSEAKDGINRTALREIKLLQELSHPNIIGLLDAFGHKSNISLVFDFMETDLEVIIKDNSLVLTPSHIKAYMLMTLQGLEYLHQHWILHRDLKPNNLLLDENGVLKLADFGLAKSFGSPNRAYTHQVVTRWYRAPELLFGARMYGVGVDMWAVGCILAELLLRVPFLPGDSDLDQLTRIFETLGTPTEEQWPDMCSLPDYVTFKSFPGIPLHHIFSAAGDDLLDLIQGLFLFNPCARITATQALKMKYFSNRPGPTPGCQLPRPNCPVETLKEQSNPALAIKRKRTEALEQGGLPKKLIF

SMILES: CN1CCC(c2c(O)cc(O)c3c(=O)cc(-c4ccccc4Cl)oc23)C1CO (stereo not drawn) [P276-00]
- Inhibition at 10µM (%) ([1]; average): 41.0%
- Inhibition at 10µM (%) ([1]; experiment 1): 45.9%
- Inhibition at 10µM (%) ([1]; experiment 2): 36.2%
- Inhibition at 10µM (%) ([2]; average): 22.7%
- Inhibition at 10µM (%) ([2]; experiment 1): 16.7%
- Inhibition at 10µM (%) ([2]; experiment 2): 28.7%
- Inhibition at 10µM (%) ([3]; average): 51.8%
- Inhibition at 10µM (%) ([3]; experiment 1): 52.6%
- Inhibition at 10µM (%) ([3]; experiment 2): 51.0%
- Inhibition at 10µM (%) ([4]; average): 80.8%
- IC50 ([4]; average (± SEM where n=3)): 400 ± 100 nM
- Inhibition at 10µM (%) ([4]; experiment 1): 79.0%
- IC50 ([4]; experiment 1): 690 nM
- Inhibition at 10µM (%) ([4]; experiment 2): 82.6%
- IC50 ([4]; experiment 2): 200 nM
- IC50 ([4]; experiment 3): 301 nM
- Inhibition at 10µM (%) ([5]; average): 26.1%
- Inhibition at 10µM (%) ([5]; experiment 1): 31.1%
- Inhibition at 10µM (%) ([5]; experiment 2): 21.1%
- Inhibition at 10µM (%) ([6]; average): 83.0%
- IC50 ([6]; average (± SEM where n=3)): 500 ± 100 nM
- Inhibition at 10µM (%) ([6]; experiment 1): 78.3%
- IC50 ([6]; experiment 1): 550 nM
- Inhibition at 10µM (%) ([6]; experiment 2): 87.7%
- IC50 ([6]; experiment 2): 220 nM
- IC50 ([6]; experiment 3): 659 nM
- Inhibition at 10µM (%) ([7]; average): 32.2%
- Inhibition at 10µM (%) ([7]; experiment 1): 38.1%
- Inhibition at 10µM (%) ([7]; experiment 2): 26.2%
- Inhibition at 10µM (%) ([8]; average): 79.0%
- Inhibition at 10µM (%) ([8]; experiment 1): 82.7%
- Inhibition at 10µM (%) ([8]; experiment 2): 75.3%
- Inhibition at 10µM (%) ([9]; average): 96.7%
- Inhibition at 10µM (%) ([9]; experiment 1): 94.9%
- Inhibition at 10µM (%) ([9]; experiment 2): 98.4%
- Inhibition at 10µM (%) ([10]; average): 58.5%
- Inhibition at 10µM (%) ([10]; experiment 1): 56.7%
- Inhibition at 10µM (%) ([10]; experiment 2): 60.4%
- Inhibition at 10µM (%) ([11]; average): 3.3%
- Inhibition at 10µM (%) ([11]; experiment 1): 2.5%
- Inhibition at 10µM (%) ([11]; experiment 2): 4.1%
- Inhibition at 10µM (%) ([12]; average): 11.2%
- Inhibition at 10µM (%) ([12]; experiment 1): 12.5%
- Inhibition at 10µM (%) ([12]; experiment 2): 9.8%
- Inhibition at 10µM (%) ([13]; average): 50.9%
- Inhibition at 10µM (%) ([13]; experiment 1): 51.1%
- Inhibition at 10µM (%) ([13]; experiment 2): 50.7%
- Inhibition at 10µM (%) ([14]; average): 28.5%
- Inhibition at 10µM (%) ([14]; experiment 1): 33.3%
- Inhibition at 10µM (%) ([14]; experiment 2): 23.7%
- Inhibition at 10µM (%) ([15]; experiment 1): 61.8%
- Inhibition at 10µM (%) ([15]; experiment 2): 61.2%
- Inhibition at 10µM (%) ([16]; average): 71.1%
- Inhibition at 10µM (%) ([16]; experiment 1): 75.5%
- Inhibition at 10µM (%) ([16]; experiment 2): 66.7%
- Inhibition at 10µM (%) ([17]; average): 57.3%
- Inhibition at 10µM (%) ([17]; experiment 1): 55.4%
- Inhibition at 10µM (%) ([17]; experiment 2): 59.3%
- Inhibition at 10µM (%) ([18]; experiment 1): -0.6%
- Inhibition at 10µM (%) ([18]; experiment 2): -6.9%
- Inhibition at 10µM (%) ([19]; average): 72.1%
- Inhibition at 10µM (%) ([19]; experiment 1): 76.3%
- Inhibition at 10µM (%) ([19]; experiment 2): 67.9%
- Inhibition at 10µM (%) ([20]; average): 11.6%
- Inhibition at 10µM (%) ([20]; experiment 1): 10.1%
- Inhibition at 10µM (%) ([20]; experiment 2): 13.1%

Reference: paper PMC7265341, “Quantifying CDK inhibitor selectivity in live cells” (Nature Communications, 2020)
